Test results: patent publication US12226441B2, “Composition for inhibiting intestinal permeability, treating leaky gut related diseases and/or preventing leaky gut related diseases” (priority 2020, dated 2025)

Experiments:
TJP1 = assay: real-time quantitative PCR of tight junction gene expression in rhamnolipid-induced Caco-2 cells; type: cell-based, human; settings: positive control, 50 μM (18.6 μg/mL), rhamnolipid-induced Caco-2, vs negative control
From the text: (§1) Total ribonucleic acid (total RNA) of cells was isolated by Total RNA Purification Kit (GeneMark, Taichung, Taiwan). Using Maxima First Strand cDNA Synthesis Kit (Thermo Fisher Scientific), according to the manufacturer's operating procedures, the obtained total ribonucleic acid subjected to a reverse transcription polymerase chain reaction to reverse-transcript messenger ribonucleic acid (mRNA) into cDNA. Next, the cDNA samples were subjected to a real-time quantitative polymerase chain reaction to determine the expression levels of CLDN3, OCLN and TJP1 mRNA.

OCLN = assay: as above; type: cell-based, human; settings: positive control, 50 μM (18.6 μg/mL), rhamnolipid-induced Caco-2, vs negative control
From the text: as §1

CLDN3 = assay: as above; type: cell-based, human; settings: positive control, 50 μM (18.6 μg/mL), rhamnolipid-induced Caco-2, vs negative control
From the text: as §1

DSS-induced mice = assay: dextran sulfate sodium salt (DSS) induced abnormal intestinal permeability animal model, serum FITC-dextran; type: in vivo, C57BL/6 male mice; settings: positive control, 0.5% (v/v) DSS, 200 μM, 14 days, vs negative control
Method: The animals used in this experiment were 5-6 week old C57BL/6 male mice (purchased from the National Laboratory Animal Center).
The experiment was performed by an animal model of dextran sulfate sodium salt (DSS) induced abnormal intestinal permeability (Laroui H, Ingersoll S A, Liu H C, Baker M T, Ayyadurai S, et al. (2012) Dextran Sodium Sulfate (DSS) Induces Colitis in Mice by Forming Nano-Lipocomplexes with Medium-Chain-Length Fatty Acids in the Colon. PLOS ONE 7(3): e32084. doi:10.1371/journal.pone.0032084).
The mice were divided into an untreated group (Naive), a negative control group (vehicle: water), a positive control group (5-aminosalicylic acid (5-ASA)) and 3 experiments groups (Sample 15B (Ganoderma extract+red jujube extract+lotus seed extract+lotus seed extract (the weight ratio of the respective herbal raw materials used to obtain the respective extracts is 3:1:1:1))). The mice in the untreated group were not treated in any way. […]
The FITC-dextran content in mouse serum was measured with a multifunctional microplate spectrometer (Molecular Device, FlexStation® 3) as an indicator of intestinal permeability.

[1] = test system: mice with circadian disruption; assay: circadian disruption (insomnia) animal model, brainwave sleep cycle parameters; type: in vivo, C57BL/6 male mice; settings: positive control, light-dark cycle 7 hours:7 hours, 2.5 mg/kg orally, Day 4, vs negative control
Method: The animals used in this experiment were 8-week-old C57BL/6 male mice (purchased from the National Laboratory Animal Center).
The mice were subjected to a surgical operation to load electrodes on the skull to record brain waves. After a 7-day recovery period, the mice were reared for 2 weeks under a normal light-dark cycle of 12 hours: 12 hours, and the 24-hour brainwave changes of the mice were recorded as the basic point.
During the feeding, the mice in the negative control group were given the same amount of sterile water, mice in the positive control group were given diazepam (2.5 mg/kg orally), and mice in the experimental group were given 200 mg/kg Sample 15B.
The 24-hour brainwave changes of mice were recorded on Day 4 after the circadian disruption to analyze sleep cycle parameters of the time proportions (%) of the rapid eye movement (REM) and non-rapid eye movement (NREM), etc.

COc1ccc2cc3[n+](cc2c1OC)CCc1cc2c(cc1-3)OCO2 [berberine chloride]
expression level of TJP1 gene (TJP1): significantly increase
expression level of OCLN gene (OCLN): significantly increase
expression level of CLDN3 gene (CLDN3): significantly increase

Nc1ccc(O)c(C(=O)O)c1 [5-aminosalicylic acid]
serum FITC-dextran concentration (intestinal permeability) (DSS-induced mice): reduce the serum FITC-dextran concentration

CN1C(=O)CN=C(c2ccccc2)c2cc(Cl)ccc21 [diazepam]
time proportion of the non-rapid eye movement (NREM) [1]: significantly increase the time proportion of the non-rapid eye movement
